{"source": "patent US11529319B2", "about": "“Methods and compositions for treating neurological conditions” (priority 2017, dated 2022)", "key": {"Mef2c-het mice [1]": {"tested_on": "Mef2c-het mice", "test": "Morris water maze (spatial learning and memory)", "assay_type": "in vivo, mouse", "text": "(§1) Mef2c heterozygous knockout (Mef2c-het) mice were created by crossing mice carrying the conventional exon 2-deleted allele of Mef2c (Mef2c^Δ2) with their WT littermates. All procedures for maintaining and using these mice were approved by the Institutional Animal Care and Use Committee (IACUC) at the Sanford Burnham Prebys Medical Discovery Institute. In this study, only male mice were used for the behavioral assays to insure uniformity (either with or without drug treatment). Chronic treatment with memantine, NitroSynapsin (both at 4.6 μmol/kg body weight) or vehicle (PBS) was administered via i.p. injection, twice a day for at least 3 months, starting at ˜2.5 weeks of age. This age was chosen because mice are still juveniles and thus treatment could begin in human at an equivalent stage.\nWe tested spatial reference learning and memory using a version of the conventional Morris water maze. The mice were trained to swim to a platform 14 cm in diameter and submerged 1.5 cm beneath the surface of the water. The platform was invisible to the mice while swimming. […] Mice were given 4 trials a day for as many days as necessary to reach the criterion (<20 s mean escape latency). Retention of spatial training was assessed 24 h after the last training trial. Both probe trials consisted of a 60-s free swim in the pool without the platform. The ANY-maze video tracking system (Stoelting Co.) was used to videotape all trials for automated analysis."}, "Mef2c-het mice [2]": {"tested_on": "Mef2c-het mice", "test": "Hole-board exploration test", "assay_type": "in vivo, mouse", "details": "chronic treatment", "text": "as §1\nThe apparatus consisted of a Plexiglas cage (32×32×30 cm) with 16 holes in a format of 4×4 (each 3 cm in diameter) equally spaced on an elevated floor. The explorative activity including the number of head-dips and the time spent head-dipping were measured for 5 min."}, "Mef2c-het mice [3]": {"tested_on": "Mef2c-het mice", "test": "Three-chamber social interaction test", "assay_type": "in vivo, mouse", "text": "as §1\nThis test was originally developed by the Crawley group for an animal model of autism. Autistic individuals show aberrant reciprocal social interaction, including low levels of social approach and unusual modes of interaction. A social interaction apparatus consisting of a rectangular, three chambered Plexiglas box, with each chamber measuring 20 cm (length)×40.5 cm (width)×22 cm (height) was used. Walls dividing the chamber were clear with small semicircular openings (3.5 cm radius), allowing access into each chamber. The middle chamber was empty and the two outer chambers contained small, round wire cages (Galaxy Cup, Spectrum Diversified Designs, Inc., Streetsboro, Ohio). The mice were habituated to the entire apparatus for 5 min. To assess social interaction, mice were returned to the middle chamber, this time with a stranger mouse (C57BL/6J of the same sex tethered to the wire cage). Time spent in the chamber with the stranger mouse and time spent in the empty wire cage-containing chamber were each recorded for 5 min, as was the number of entries into each chamber. Experimental mice were tested once, and the stranger C57BL/6J mice were used for up to 6 tests."}, "Mef2c-het mice [4]": {"tested_on": "Mef2c-het mice", "test": "Motor behavioral tests and paw clasping", "assay_type": "in vivo, mouse", "details": "3-month treatment", "text": "as §1, with “This age was chosen because mice are still juveniles and thus treatment could begin in human at an equivalent stage.” left out\nBalance was measured by the latency to fall off the elevated (40 cm) horizontal rod (50 cm long) in four 20 sec trials. […] Traction capacity was measured over three 5 s trials as the ability of the animal to raise the hind limbs while remaining suspended by the forepaws grasped around an elevated horizontal bar (2 mm diameter). […] Muscle Strength was determined by one trial of 60 s in which the mice were placed in the middle of the horizontal bar in an upside-down position and the latency until falling down was measured. […] The latency to turn downward and the total time to descend to the floor over 3 trials was recorded."}, "[5]": {"tested_on": "p38 MAPK/MAPKAPK2/TSC2/mTORC1/S6K1 cascade", "test": "Western blots of eNMDAR-triggered signaling", "assay_type": "cell-based", "details": "compared with Memantine", "text": "This experiment was replicated 4 times with similar results and quantified in FIG. 20C."}, "[6]": {"tested_on": "hippocampal slices of Tsc2+/- mice", "test": "CA1 LTP in acute hippocampal slices by multielectrode array", "assay_type": "cell-based, mouse", "details": "1-2 μM, 4-hour treatment; monitored 55-65 min after induction; vs vehicle", "description": "Long-term potentiation (LTP), a form of synaptic plasticity elicited in response to excitatory input and thought to represent an electrical correlate of learning and memory in the hippocampus, was examined. Field recordings in the CA1 region of hippocampal slices were used to investigate the effects of Tsc2 mutation on this form of synaptic plasticity. For this purpose, acute hippocampal slices from one-month-old mice were prepared and field recordings in a microelectrode array (MEA) chamber perfused with artificial cerebrospinal fluid (ACSF) were performed. fEPSPs (field excitatory postsynaptic potentials) were recorded in the CA1 region after evoking LTP via stimulation of the Schaffer collaterals (four repetitions of 100 Hz pulses for one second each). The initial slope of the fEPSP was analyzed to assess LTP. However, with a stronger induction protocol as used here, we observed a decrease in LTP, monitored 60 min after induction."}}, "note": "“Also recorded” adds a separate entry of the source.", "data": [{"smiles": "CCC12CC3(N)CC(CC)(C1)CC(O[N+](=O)[O-])(C3)C2", "note": "[NitroSynapsin]", "values": [{"measurement": "latency of finding hidden platform during training sessions", "setting": "Mef2c-het mice [1]; Mef2c-het mice, 4.6 μmol/kg i.p. twice a day, 3 months", "result": "improved performance relative to vehicle"}, {"measurement": "probe test, time in target vs opposite quadrant (memory retention)", "setting": "Mef2c-het mice [1]; Mef2c-het mice, 4.6 μmol/kg i.p. twice a day, 3 months, 24 h after last training", "result": "normalized memory function; also recorded: rescued this effect"}, {"measurement": "effect on Morris water maze in WT mice", "setting": "Mef2c-het mice [1]; WT mice, 3-month treatment", "result": "no effects"}, {"measurement": "head-dips per hole (repetitive behavior)", "setting": "Mef2c-het mice [2]", "result": "corrected the abnormal repetitive behavior"}, {"measurement": "social ability: time in chambers, number and duration of visits", "setting": "Mef2c-het mice [3]; Mef2c-het mice, chronic treatment", "result": "improved this abnormal social behavior; also recorded: rescued aberrant social ability"}, {"measurement": "number of social visits (S1 minus E), NitroSynapsin vs equimolar memantine", "setting": "Mef2c-het mice [3]; Mef2c-het mice, head-to-head comparison", "result": "demonstrated the superiority of NitroSynapsin; also recorded: significantly greater than that of memantine (M)-treated mice"}, {"measurement": "social behavior of WT mice", "setting": "Mef2c-het mice [3]; WT mice, 3-month treatment", "result": "did not significantly alter the social behavior of WT mice"}, {"measurement": "paw clasping", "setting": "Mef2c-het mice [4]", "result": "did not improve the paw clasping phenotype; also recorded: not rescued"}, {"measurement": "eNMDAR-triggered signaling that inactivates TSC2 (p38 MAPK-TSC-Rheb-mTORC1-S6K1 pathway)", "setting": "[5]", "result": "correction of activity"}, {"measurement": "eNMDAR-triggered signaling that inactivates TSC2 (p38 MAPK-TSC-Rheb-mTORC1-S6K1 pathway)", "setting": "[5]; listed as NitroMemantine", "result": "to a greater degree than Memantine"}, {"measurement": "CA1 LTP in Tsc2+/- hippocampal slices", "setting": "[6]", "result": "all improved; also recorded: improved LTP; also recorded: able to reverse deficits in synaptic plasticity; also recorded: improvement of LTP"}]}]}
